In EP0068680A1, “Antibiotics” (BEECHAM GROUP PLC, priority 1981, dated 1983):
Values after ≈ are worked out from the molar mass of the structure shown. Like-named read-outs stand apart in the source and are kept apart here.

Columns and labels:
Strep. pyogenes 64/848-C = assay: MIC against Human Bacteria in vitro (agar dilution); assay type: cell-based; conditions: Streptococcus pyogenes, agar with 5% chocolated horse blood, 18 hours at 37°C
M. suipneumoniae UCD 1 = assay: MIC against Mycoplasma in vitro (agar); assay type: cell-based; conditions: Friis broth solidified with 0.9% agarose, 6 days at 37°C
Strep. faecalis I = assay: MIC against Human Bacteria in vitro (agar dilution); assay type: cell-based; conditions: agar with 5% chocolated horse blood, 18 hours at 37°C
M. hyorhinis ATCC 25021 = assay: MIC against Mycoplasma in vitro (agar); assay type: cell-based; conditions: Friis broth solidified with 0.9% agarose, 6 days at 37°C
M. suipneumoniae MS 16 = assay: MIC against Mycoplasma in vitro (agar); assay type: cell-based; conditions: Friis broth solidified with 0.9% agarose, 6 days at 37°C
[1] = test system: Staph. aureus 152 (pen. sens); assay: MIC against Veterinary Bacteria in vitro (agar dilution)
Protocol: (§1) The activity of the compounds of the Examples against various veterinarily important bacteria, was assayed in vitro using two-fold serial dilutions in Diagnostic Sensitivity Test Agar inoculated with 10^4 organisms.

M. suipneumoniae JF 435 = assay: MIC against Mycoplasma in vitro (agar); assay type: cell-based; conditions: Friis broth solidified with 0.9% agarose, 6 days at 37°C
[2] = test system: M. hyosynoviae ATCC 25591; assay: MIC against Mycoplasma in vitro (agar); assay type: cell-based; conditions: Friis broth solidified with 0.9% agarose, 6 days at 37°C
Past. multocida PA1 = assay: MIC against Veterinary Bacteria in vitro (agar dilution)
Protocol: as §1

Bord. bronchiseptica B09 = assay: as above
Protocol: as §1

[3] = test system: M. suipneumoniae NCTC 10110; assay: MIC against Mycoplasma in vitro (agar); assay type: cell-based; conditions: Friis broth solidified with 0.9% agarose, 6 days at 37°C
M. gallisepticum S6 = assay: MIC against Mycoplasma in vitro (agar); assay type: cell-based; conditions: Friis broth solidified with 0.9% agarose, 6 days at 37°C
Strep. dysgalactiae SPD1 = assay: MIC against Veterinary Bacteria in vitro (agar dilution)
Protocol: as §1

[4] = test system: Strep. pyogenes R80/421-A; assay: MIC against Human Bacteria in vitro (agar dilution); assay type: cell-based; conditions: Streptococcus pyogenes, agar with 5% chocolated horse blood, 18 hours at 37°C
[5] = test system: Haemophilus influenzae Wy21; assay: as above; assay type: cell-based; conditions: agar with 5% chocolated horse blood, 18 hours at 37°C
M. pneumoniae ATCC 15492 = assay: MIC against Mycoplasma in vitro (agar); assay type: cell-based; conditions: Friis broth solidified with 0.9% agarose, 6 days at 37°C
[6] = test system: Corynebacterium pyogenes CY1; assay: MIC against Veterinary Bacteria in vitro (agar dilution); conditions: Diagnostic Sensitivity Test Agar, 18 hours at 37°C
Protocol: as §1

## CC(=CC(=O)OCCCCC=CCCC(=O)O)CC1OCC(CC2OC2C(C)C(C)O)C(O)C1O (centres unmarked) [Example 1, pseudomonic acid D]
Strep. pyogenes 64/848-C
  MIC: 0.25 µg/mL (≈ 0.501 µM)
M. suipneumoniae UCD 1; Mesomycoplasma hyopneumoniae, UCD1, 144 h, read-out: MIC
  MIC: 5 µg/mL (≈ 10 µM)
Strep. faecalis I; Enterococcus faecalis, read-out: MIC
  MIC: > 25 µg/mL
M. hyorhinis ATCC 25021; Mesomycoplasma hyorhinis, ATCC25021, 144 h, read-out: MIC
  MIC: 1 µg/mL (≈ 2.01 µM)
M. suipneumoniae MS 16; Mesomycoplasma hyopneumoniae, MS16, 144 h, read-out: MIC
  MIC: 2.5 µg/mL (≈ 5.01 µM)
[1]; Staphylococcus aureus, 18 h
  MIC: 0.312 µg/mL (≈ 0.626 µM)
M. suipneumoniae JF 435; Mesomycoplasma hyopneumoniae, JF435, 144 h, read-out: MIC
  MIC: 5 µg/mL (≈ 10 µM)
[2]; 144 h, read-out: MIC
  MIC: 0.5 µg/mL (≈ 1 µM)
Past. multocida PA1; Pasteurella multocida, PA1, 18 h
  MIC: 0.156 µg/mL (≈ 0.313 µM)
Bord. bronchiseptica B09; Bordetella bronchiseptica, B09, 18 h
  MIC: 5 µg/mL (≈ 10 µM)
[3]; Mesomycoplasma hyopneumoniae, NCTC10110, 144 h, read-out: MIC
  MIC: 5 µg/mL (≈ 10 µM)
M. gallisepticum S6; Mycoplasmoides gallisepticum, 144 h, read-out: MIC
  MIC: > 10 µg/mL
Strep. dysgalactiae SPD1; Streptococcus dysgalactiae, SPD1, 18 h
  MIC: 0.156 µg/mL (≈ 0.313 µM)
[4]
  MIC: 0.5 µg/mL (≈ 1 µM)

## Methyl pseudomonate D [Example 2]
[5]
  MIC: 0.1 µg/mL
M. suipneumoniae UCD 1
  MIC: 5.0 µg/mL
Strep. faecalis I
  MIC: >100 µg/mL
M. hyorhinis ATCC 25021
  MIC: 1.0 µg/mL
M. suipneumoniae MS 16
  MIC: 2.5 µg/mL
[1]; Staph. aureus 152 (pen. sens), Diagnostic Sensitivity Test Agar, 18 hours at 37°C
  MIC: 0.625 µg/mL
M. suipneumoniae JF 435
  MIC: 5.0 µg/mL
[2]
  MIC: 0.5 µg/mL
M. pneumoniae ATCC 15492
  MIC: >10 µg/mL
Past. multocida PA1; Past. multocida PA1, Diagnostic Sensitivity Test Agar, 18 hours at 37°C
  MIC: 10 µg/mL
[6]
  MIC: 80 µg/mL
Bord. bronchiseptica B09; Bord. bronchiseptica B09, Diagnostic Sensitivity Test Agar, 18 hours at 37°C
  MIC: 10 µg/mL
[3]
  MIC: 5.0 µg/mL
M. gallisepticum S6
  MIC: >10 µg/mL
Strep. dysgalactiae SPD1; Strep. dysgalactiae SPD1, Diagnostic Sensitivity Test Agar, 18 hours at 37°C
  MIC: 0.156 µg/mL
